According to patent US20090012170A1, “TREATMENT OF SYMPTOMS OF MOTOR DYSFUNCTION” (priority 2005, published 2009):

Tested on: PD patients
Assay: Pooled analysis of three double blind, placebo-controlled studies and their open-label extensions: earlier vs. delayed start of entacapone adjunct to levodopa/DDC inhibitor
Format: in vivo, human
Experimental: A study was carried out to evaluate the effect of earlier vs. delayed start of entacapone adjunct to traditional levodopa/DDC inhibitor treatment on the long-term Parkinson's disease symptom control up to 5 years.
Analysis of pooled data of three pivotal double blind, placebo-controlled studies, and their respective long-term open-label extension studies up to 5 years on entacapone adjunct to optimised levodopa/DDC inhibitor and other PD treatment.
A total of 488 PD patients, of whom 269 were on entacapone and 219 on placebo during the 6-month double blind phase, continued with open entacapone treatment in the long-term extension phases up to 5 years. UPDRS III assessment and the mean daily levodopa dose were reported until the point when a minimum of 10 patients in each treatment arm was available, i.e. up to five years.

SMILES: CCN(CC)C(=O)/C(C#N)=C/c1cc(O)c(O)c([N+](=O)[O-])c1 [entacapone, (E)-2-cyano-3-(3,4-dihydroxy-5-nitrophenyl)-N-diethyl-2 propenamide]
- decrease of mean daily levodopa dose after initiation of open entacapone (delayed start group, comparable with the decrease in the earlier start group at the beginning of the double-blind phase, thereafter below baseline in both groups): about 70 mg
- mean difference in UPDRS III over time between the earlier and delayed start treatment groups (entacapone adjunct to levodopa/DDC inhibitor, earlier vs 6 months delayed start, up to 5 years, 95%CI [−3.01, −0.31], repeated measures analysis, p<0.05): −1.66
